Assay results: patent US10927078B2, “Modulators of indoleamine 2,3-dioxygenase” (GLAXOSMITHKLINE INTELLECTUAL PROPERTY DEVELOPMENT LIMITED, priority 2017, dated 2021)

molecular target: indoleamine 2, 3-dioxygenase (IDO1) (Homo sapiens, UniProt P14902); assay: PBMC IDO1 assay (kynurenine via mass spectrometry); assay type: cell-based; details: not given
Method: Compounds of the present invention were tested via high-throughput cellular assays utilizing detection of kynurenine via mass spectrometry and cytotoxicity as end-points. For the mass spectrometry and cytotoxicity assays, human peripheral blood mononuclear cells (PBMC) (PB003F; AllCells®, Alameda, Calif.) were stimulated with human interferon-γ (IFN-γ) (Sigma-Aldrich Corporation, St. Louis, Mo.) and lipopolysaccharide from Salmonella minnesota (LPS) (Invivogen, San Diego, Calif.) to induce the expression of indoleamine 2, 3-dioxygenase (IDO1). Compounds with IDO1 inhibitory properties decreased the amount of kynurenine produced by the cells via the tryptophan catabolic pathway. Cellular toxicity due to the effect of compound treatment was measured using CellTiter-Glo® reagent (CTG) (Promega Corporation, Madison, Wis.), which is based on luminescent detection of ATP, an indicator of metabolically active cells.
In preparation for the assays, test compounds were serially diluted 3-fold in DMSO from a typical top concentration of 5 mM and plated at 0.5 μL in 384-well, polystyrene, clear bottom, tissue culture treated plates with lids (Greiner Bio-One, Kremsmünster, Austria) to generate 11-point dose response curves. Low control wells (0% kynurenine or 100% cytotoxicity) contained either 0.5 μL of DMSO in the presence of unstimulated (-IFN-γ/-LPS) PBMCs for the mass spectrometry assay or 0.5 μL of DMSO in the absence of cells for the cytotoxicity assay, and high control wells (100% kynurenine or 0% cytotoxicity) contained 0.5 μL of DMSO in the presence of stimulated (+IFN-γ/+LPS) PBMCs for both the mass spectrometry and cytotoxicity assays.
Frozen stocks of PBMCs were washed and recovered in RPMI 1640 medium (Thermo Fisher Scientific, Inc., Waltham, Mass.) supplemented with 10% v/v heat-inactivated fetal bovine serum (FBS) (Thermo Fisher Scientific, Inc., Waltham, Mass.), and 1× penicillin-streptomycin antibiotic solution (Thermo Fisher Scientific, Inc., Waltham, Mass.). The cells were diluted to 1,000,000 cells/mL in the supplemented RPMI 1640 medium. 50 μL of either the cell suspension, for the mass spectrometry assay, or medium alone, for the cytotoxicity assay, were added to the low control wells, on the previously prepared 384-well compound plates, resulting in 50,000 cells/well or 0 cells/well respectively. IFN-γ and LPS were added to the remaining cell suspension at final concentrations of 100 ng/ml and 50 ng/ml respectively, and 50 μL of the stimulated cells were added to all remaining wells on the 384-well compound plates. The plates, with lids, were then placed in a 37° C., 5% CO2 humidified incubator for 2 days.
Following incubation, the 384-well plates were removed from the incubator and allowed to equilibrate to room temperature for 30 minutes. For the cytotoxicity assay, CellTiter-Glo® was prepared according to the manufacturer's instructions, and 40 μL were added to each plate well. After a twenty minute incubation at room temperature, luminescence was read on an EnVision® Multilabel Reader (PerkinElmer Inc., Waltham, Mass.). For the mass spectrometry assay, 10 μL of supernatant from each well of the compound-treated plates were added to 40 μL of acetonitrile, containing 10 μM of an internal standard for normalization, in 384-well, polypropylene, V-bottom plates (Greiner Bio-One, Kremsmünster, Austria) to extract the organic analytes. Following centrifugation at 2000 rpm for 10 minutes, 10 μL from each well of the acetonitrile extraction plates were added to 90 μL of sterile, distilled H2O in 384-well, polypropylene, V-bottom plates for analysis of kynurenine and the internal standard on the RapidFire 300 (Agilent Technologies, Santa Clara, Calif.) and 4000 QTRAP MS (SCIEX, Framingham, Mass.). MS data were integrated using Agilent Technologies' RapidFire Integrator software, and data were normalized for analysis as a ratio of kynurenine to the internal standard. […]

Sequence of indoleamine 2, 3-dioxygenase (IDO1) (P14902 whole entry): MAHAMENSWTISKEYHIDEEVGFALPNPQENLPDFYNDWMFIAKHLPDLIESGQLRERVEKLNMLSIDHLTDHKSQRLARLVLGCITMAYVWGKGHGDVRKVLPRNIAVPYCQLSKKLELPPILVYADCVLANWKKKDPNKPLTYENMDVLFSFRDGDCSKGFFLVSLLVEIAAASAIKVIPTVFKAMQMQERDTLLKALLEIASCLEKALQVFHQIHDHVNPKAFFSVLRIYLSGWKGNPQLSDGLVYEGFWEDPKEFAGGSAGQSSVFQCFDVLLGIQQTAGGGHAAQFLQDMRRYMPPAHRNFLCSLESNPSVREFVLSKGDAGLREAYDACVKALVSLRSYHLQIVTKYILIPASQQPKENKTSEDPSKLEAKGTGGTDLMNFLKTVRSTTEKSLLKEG

Compound	IC50 [nM]
Cc1ccnc(C)c1OC(=O)N1CCC(C(CC(C)C)NC(=O)c2ccc(Cl)cc2)CC1 (stereo not drawn) [Example 3, 2,4-dimethylpyridin-3-yl 4-(1-(4-chlorobenzamido)-3-methylbutyl)piperidine-1-carboxylate]	1
CC(C)CC(NC(=O)c1ccc(Cl)cc1)C1CCN(C(=O)Oc2cccnc2C#N)CC1 (stereo not drawn) [Example 5, 2-cyanopyridin-3-yl 4-{1-[(4-chlorophenyl)formamido]-3-methylbutyl}piperidine-1-carboxylate]	1.58
Cc1ncccc1OC(=O)N1CCC(C(CC(C)C)NC(=O)c2ccc(Cl)cc2)CC1 (stereo not drawn) [Example 6, 2-methylpyridin-3-yl 4-{1-[(4-chlorophenyl)formamido]-3-methylbutyl}piperidine-1-carboxylate]	1.58
COc1ncccc1OC(=O)N1CCC(C(CC(C)C)NC(=O)c2ccc(Cl)cc2)CC1 (stereo not drawn) [Example 10, 2-methoxypyridin-3-yl 4-{1-[(4-chlorophenyl)formamido]-3-methylbutyl}piperidine-1-carboxylate]	2.51
Cc1ncccc1OC(=O)N1CCC([C@H](NC(=O)c2ccc(Cl)cc2)c2ccccc2)CC1 [Example 14, 2-methylpyridin-3-yl 4-[(S)-[(4-chlorophenyl)formamido](phenyl)methyl]piperidine-1-carboxylate]	2.51
Cc1ncccc1OC(=O)N1CCC(C(CC(C)C)NC(=O)c2ccc(F)cc2)CC1 (stereo not drawn) [Example 18, 2-methylpyridin-3-yl 4-{1-[(4-fluorophenyl)formamido]-3-methylbutyl}piperidine-1-carboxylate]	3.16
CC(C)CC(NC(=O)c1ccc(F)cc1)C1CCN(C(=O)Oc2cccnc2F)CC1 (stereo not drawn) [Example 22, 2-fluoropyridin-3-yl 4-{1-[(4-fluorophenyl)formamido]-3-methylbutyl}piperidine-1-carboxylate]	3.98

same assay, conditions: human PBMC stimulated with IFN-γ and LPS, 2 days, kynurenine by mass spectrometry; recorded as pIC50; read-out: PBMC PXC50_ (converted)

Compound	IC50 [nM]
Cc1ccc(C(=O)NC(C2CC2)C2CCN(C(=O)Oc3c(C)ncnc3C)CC2)s1 (stereo in doubt) [Example 113, (S)-4,6-dimethylpyrimidin-5-yl 4-(cyclopropyl(5-methylthiophene-2-carboxamido)methyl)piperidine-1-carboxylate]	12.6
O=C(NC(C1CC1)C1CCN(C(=O)Oc2cncnc2)CC1)c1ccc(Cl)s1 (stereo in doubt) [Example 115, (S)-pyrimidin-5-yl 4-((5-chlorothiophene-2-carboxamido)(cyclopropyl)methyl)piperidine-1-carboxylate]	50.1
Cc1nccc(OC(=O)N2CCC([C@H](NC(=O)c3ccc(Cl)s3)c3ccccc3)CC2)c1C [Example 1, (S)-2,3-dimethylpyridin-4-yl 4-((5-chlorothiophene-2-carboxamido)(phenyl)methyl)piperidine-1-carboxylate]	0.631
Cc1nccc(OC(=O)N2CCC([C@H](NC(=O)c3ccc(Cl)s3)C3CC3)CC2)c1C [Example 7, 2,3-dimethylpyridin-4-yl 4-[(R)-[(5-chlorothiophen-2-yl)formamido](cyclopropyl)methyl]piperidine-1-carboxylate]	2
CC(C)C[C@@H](NC(=O)c1ccc(Cl)s1)C1CCN(C(=O)Oc2ccccc2)CC1 [Example 8, phenyl 4-[(1R)-1-[(5-chlorothiophen-2-yl)formamido]-3-methylbutyl]piperidine-1-carboxylate]	2
Cc1c(F)cccc1OC(=O)N1CCC(C(CC(C)C)NC(=O)c2ccc(F)cc2)CC1 (stereo not drawn) [Example 9, 3-fluoro-2-methylphenyl 4-{1-[(4-fluorophenyl)formamido]-3-methylbutyl}piperidine-1-carboxylate]	2.51
CC(C)CC(NC(=O)c1ccc(F)cc1)C1CCN(C(=O)Oc2cccc(F)c2Cl)CC1 (stereo not drawn) [Example 11, 2-chloro-3-fluorophenyl 4-{1-[(4-fluorophenyl)formamido]-3-methylbutyl}piperidine-1-carboxylate]	2.51
CC(C)CC(NC(=O)c1ccc(F)cc1)C1CCN(C(=O)Oc2cccc(F)c2C#N)CC1 (stereo not drawn) [Example 12, 2-cyano-3-fluorophenyl 4-{1-[(4-fluorophenyl)formamido]-3-methylbutyl}piperidine-1-carboxylate]	2.51
COc1c(F)cccc1OC(=O)N1CCC(C(CC(C)C)NC(=O)c2ccc(F)cc2)CC1 (stereo not drawn) [Example 13, 3-fluoro-2-methoxyphenyl 4-{1-[(4-fluorophenyl)formamido]-3-methylbutyl}piperidine-1-carboxylate]	2.51
Cc1ncnc(C)c1OC(=O)N1CCC(C(CC(C)C)NC(=O)c2ccc(Cl)cc2)CC1 (stereo not drawn) [Example 15, 4,6-dimethylpyrimidin-5-yl 4-{1-[(4-chlorophenyl)formamido]-3-methylbutyl}piperidine-1-carboxylate]	2.51
CC(C)CC(NC(=O)c1ccc(Cl)s1)C1CCN(C(=O)Oc2ccccc2)CC1 (stereo not drawn) [Example 16, phenyl 4-{1-[(5-chlorothiophen-2-yl)formamido]-3-methylbutyl}piperidine-1-carboxylate]	3.16
Cc1c(F)cccc1OC(=O)N1CCC([C@H](NC(=O)c2ccc(Cl)s2)C2CC2)CC1 [Example 19, 3-fluoro-2-methylphenyl 4-[(R)-[(5-chlorothiophen-2-yl)formamido](cyclopropyl)methyl]piperidine-1-carboxylate]	3.16
Cc1nccc(OC(=O)N2CCC([C@H](NC(=O)c3ccc(Cl)cc3)c3ccccc3)CC2)c1C [Example 20, 2,3-dimethylpyridin-4-yl 4-[(S)-[(4-chlorophenyl)formamido](phenyl)methyl]piperidine-1-carboxylate]	3.98
CC(C)C[C@@H](NC(=O)c1ccc(Cl)cc1)C1CCN(C(=O)Oc2ccccc2)CC1 [Example 21, phenyl 4-[(1R)-1-[(4-chlorophenyl)formamido]-3-methylbutyl]piperidine-1-carboxylate]	3.98
O=C(N[C@H](C1CC1)C1CCN(C(=O)Oc2ccccc2)CC1)c1ccc(Cl)s1 [Example 23, phenyl 4-[(R)-[(5-chlorothiophen-2-yl)formamido](cyclopropyl)methyl]piperidine-1-carboxylate]	3.98
CC(C)C[C@@H](NC(=O)c1ccccc1)C1CCN(C(=O)Oc2ccccc2)CC1 [Example 25, phenyl 4-[(1R)-3-methyl-1-(phenylformamido)butyl]piperidine-1-carboxylate]	5.01
CC(C)CC(NC(=O)c1ccc(Cl)cc1)C1CCN(C(=O)Oc2ccccc2)CC1 (stereo not drawn) [Example 26, phenyl 4-{1-[(4-chlorophenyl)formamido]-3-methylbutyl}piperidine-1-carboxylate]	5.01
CC(C)C[C@@H](NC(=O)c1ccc(F)cc1)C1CCN(C(=O)Oc2ccccc2)CC1 [Example 27, phenyl 4-[(1R)-1-[(4-fluorophenyl)formamido]-3-methylbutyl]piperidine-1-carboxylate]	5.01
Cc1cccc(OC(=O)N2CCC(C(CC(C)C)NC(=O)c3ccc(F)cc3)CC2)c1F (stereo not drawn) [Example 28, 2-fluoro-3-methylphenyl 4-{1-[(4-fluorophenyl)formamido]-3-methylbutyl}piperidine-1-carboxylate]	5.01
Cc1cnccc1OC(=O)N1CCC(C(CC(C)C)NC(=O)c2ccc(Cl)cc2)CC1 (stereo not drawn) [Example 29, 3-methylpyridin-4-yl 4-{1-[(4-chlorophenyl)formamido]-3-methylbutyl}piperidine-1-carboxylate]	5.01
